# Measurements taken from EP0080305A1, “Antiviral 2'-deoxyuridines, their preparation and use” (BEECHAM GROUP PLC, priority 1981, dated 1983).
# Where a name gives a salt, the structure may show the parent alone. Read-outs that look alike come from different tables or passages of the source.
# Key:
# [1] = system: Herpes simplex type 1 virus (HFEM strain); experiment: Plaque reduction test in Vero cells infected with Herpes simplex type 1 virus; format: cell-based
# Method: (§1) Vero (African Green Monkey Kidney) cells were grown to confluence in 6 well multidishes, each well being 3.5 cm in diameter. The cells were incubated with Herpes simplex type 1 virus (HFEM strain) and overlaid with 0.5 mL of 0.9% agarose (w/v) in maintenance medium containing the test compound at a range of concentrations from 3 µg/mL in half-log dilution steps. The virus infected cultures were then incubated at 37 °C for 6 days before fixing in 4% formaldehyde solution and staining with carbolfuchsin. The dishes were then examined to find what concentration of test compound causing a 50% reduction in the number of virus plaques formed (PDD50 value) and the minimum concentration of test compound which killed the cell monolayer, leaving a clear zone devoid of cells and virus plaques (MTD).
# [2] = Minimum concentration killing the Vero cell monolayer, read in the plaque reduction test; format: cell-based, African Green Monkey; settings: african green monkey; minimum concentration which killed the cell monolayer; virus-infected Vero cells, 6 days at 37°C; read-out: MTD
# Method: as §1
# [3] = Human alphaherpesvirus 1, 144 h, concentration causing a 50% reduction in the number of virus plaques, 6 days at 37°C, read-out: PDD50 (the source's name)
# [4] = Human alphaherpesvirus 1, 144 h, same PDD50 values given in µM, 6 days at 37°C, read-out: PDD50 (the source's name)
# [5] = Human alphaherpesvirus 1, Vero, 144 h, read-out: PDD50, concentration causing a 50% reduction in the number of virus plaques, 6 days at 37°C
# [6] = Human alphaherpesvirus 1, Vero, 144 h, read-out: PDD50, same PDD50 values given in µM, 6 days at 37°C
Structure (SMILES),"IC50 [1, 3] [µg/mL]","IC50 [1, 4] [µM]",MCC at 144 h [2] [µg/mL],"IC50 [1, 5] [µg/mL]","IC50 [1, 6] [µM]","PDD50 ([1]; concentration causing a 50% reduction in the number of virus plaques, 6 days at 37°C, trifluoroacetate) [µg/mL]","IC50 ([1]; read-out: PDD50, same PDD50 values given in µM, 6 days at 37°C, trifluoroacetate) [µM]"
"NC(Cc1ccc(F)cc1)C(=O)OC[C@H]1O[C@@H](n2cc(/C=C/Br)c(=O)[nH]c2=O)C[C@@H]1OC(=O)C(N)Cc1ccc(F)cc1 (mixture of isomers) [Example 15, E-5-(2-Bromovinyl)-3',5'-di-(p-fluoro-DL-phenylalanyl)-2'-deoxyuridine bis trifluoroacetate]",0.8,0.9,> 100,–,–,–,–
"CC(C)(C)OC(=O)N[C@@H](Cc1ccccc1)C(=O)OC[C@H]1O[C@@H](n2cc(/C=C/Br)c(=O)[nH]c2=O)C[C@@H]1OC(=O)[C@H](Cc1ccccc1)NC(=O)OC(C)(C)C [Example 1, E-5-(2-Bromovinyl)-3',5'-di-O-(tertbutoxycarbonylphenylalanyl)-2'-deoxyuridine]",1.1,1.33,> 100,–,–,–,–
"CC(C)(C)OC(=O)N[C@@H](Cc1ccccc1)C(=O)O[C@H]1C[C@H](n2cc(/C=C/Br)c(=O)[nH]c2=O)O[C@@H]1CO [Example 2, E-5-(2-bromovinyl)-3'-O-(tertbutoxycarbonylphenylalanyl)-2'-deoxyuridine]",0.16,0.28,> 100,–,–,–,–
"CC(C)(C)OC(=O)N[C@@H](Cc1ccccc1)C(=O)OC[C@H]1O[C@@H](n2cc(/C=C/Br)c(=O)[nH]c2=O)C[C@@H]1O [Example 3, E-5-(2-Bromovinyl)-5'-O-(tertbutoxycarbonylphenylalanyl)-2'-deoxyuridine]",0.25,0.43,> 100,–,–,–,–
"CC(C)(C)OC(=O)NCC(=O)OC[C@H]1O[C@@H](n2cc(/C=C/Br)c(=O)[nH]c2=O)C[C@@H]1OC(=O)CNC(=O)OC(C)(C)C [Example 4, E-5-(2-Bromovinyl)-3',5'-di-O-(tert.butoxycarbonylglycyl)-2'-deoxyurdine]",1.95,3.01,> 100,–,–,–,–
"CC(C)(C)OC(=O)NCC(=O)O[C@H]1C[C@H](n2cc(/C=C/Br)c(=O)[nH]c2=O)O[C@@H]1CO [Example 5, E-5-(2-Bromovinyl)-3'-O-(tert.butoxycarbonylglycyl)-2'-deoxyuridine]",0.48,0.98,> 100,–,–,–,–
"CC(C)(C)OC(=O)NCC(=O)OC[C@H]1O[C@@H](n2cc(/C=C/Br)c(=O)[nH]c2=O)C[C@@H]1O [Example 6, E-5-(2-Bromovinyl)-5'-O-(tert.-butoxycarbonylglycyl)-2'-deoxyuridine]",0.54,1.1,> 100,–,–,–,–
"NC(Cc1ccccc1)C(=O)O[C@H]1C[C@H](n2cc(/C=C/Br)c(=O)[nH]c2=O)O[C@@H]1CO (some centres unmarked) [Example 8, E-5-(2-Bromovinyl)-3'-O-phenylalanyl-2'-deoxyuridine trifluoroacetate]",–,–,> 100,0.45,0.76,–,–
NC(Cc1ccccc1)C(=O)OC[C@H]1O[C@@H](n2cc(/C=C/Br)c(=O)[nH]c2=O)C[C@@H]1OC(=O)C(N)Cc1ccccc1 (some centres unmarked) [Example 10],–,–,> 100,0.19,0.24,–,–
"CC(C)C[C@H](NC(=O)OC(C)(C)C)C(=O)OC[C@H]1O[C@@H](n2cc(/C=C/Br)c(=O)[nH]c2=O)C[C@@H]1OC(=O)[C@H](CC(C)C)NC(=O)OC(C)(C)C [Example 12, E-5-(2-Bromovinyl)-3',5'-di(t-butoxycarbonyl-L-leucyl)-2^1-deoxyuridine]",0.86,1.13,100,–,–,–,–
"NCC(=O)OC[C@H]1O[C@@H](n2cc(/C=C/Br)c(=O)[nH]c2=O)C[C@@H]1O [Example 13, E-5-(2-Bromovinyl)-5'-glycyl-2'-deoxyuridine trifluoroacetate]",–,–,> 100,0.94,1.87,–,–
"NCC(=O)OC[C@H]1O[C@@H](n2cc(/C=C/Br)c(=O)[nH]c2=O)C[C@@H]1OC(=O)CN [Example 14, E-5-(2-Bromovinyl)-3',5'-di-glycyl-2'-deoxyuridine bis trifluoroacetate]",–,–,> 100,0.36,0.53,–,–
"CC(C)C[C@H](N)C(=O)OC[C@H]1O[C@@H](n2cc(/C=C/Br)c(=O)[nH]c2=O)C[C@@H]1OC(=O)[C@@H](N)CC(C)C [Example 16, E-5-(2-Bromovinyl)-3',5'-di-L-leucyl-2'-deoxyuridine trifluoroacetate]",–,–,> 100,–,–,0.02,0.025
"CC(C)C[C@@H](NC(=O)OC(C)(C)C)C(=O)OC[C@H]1O[C@@H](n2cc(/C=C/Br)c(=O)[nH]c2=O)C[C@@H]1OC(=O)[C@@H](CC(C)C)NC(=O)OC(C)(C)C [Example 19, E-5-(2-Bromovinyl)-3',5'-di-(t-butoxy-carbonyl-D-leucyl)-2'-deoxyuridine]",> 100,–,> 100,–,–,–,–
"CC(C)(C)OC(=O)N[C@H](Cc1ccccc1)C(=O)OC[C@H]1O[C@@H](n2cc(/C=C/Br)c(=O)[nH]c2=O)C[C@@H]1OC(=O)[C@@H](Cc1ccccc1)NC(=O)OC(C)(C)C [Example 20, E-5-(2-Bromovinyl)-3',5'-di-(t-butoxy-carbonyl-D-phenylalanyl)-2'-deoxyuridine]",> 100,–,> 100,–,–,–,–
"CSCC[C@H](NC(=O)OC(C)(C)C)C(=O)OC[C@H]1O[C@@H](n2cc(/C=C/Br)c(=O)[nH]c2=O)C[C@@H]1OC(=O)[C@H](CCSC)NC(=O)OC(C)(C)C [Example 21, E-5-(2-Bromovinyl)-3',5'-di-(t-butoxy-carbonyl-L-methionyl)-2'-deoxyuridine]",1.71,2.15,> 100,–,–,–,–
"CC(C)[C@H](NC(=O)OC(C)(C)C)C(=O)OC[C@H]1O[C@@H](n2cc(/C=C/Br)c(=O)[nH]c2=O)C[C@@H]1OC(=O)[C@@H](NC(=O)OC(C)(C)C)C(C)C [Example 22, E-5-(2-Bromovinyl)-3',5'-di-(t-butoxy-carbonyl-L-valyl)-2'-deoxyuridine]",> 100,–,> 100,–,–,–,–
"CC[C@H](C)[C@H](NC(=O)OC(C)(C)C)C(=O)OC[C@H]1O[C@@H](n2cc(/C=C/Br)c(=O)[nH]c2=O)C[C@@H]1OC(=O)[C@@H](NC(=O)OC(C)(C)C)[C@@H](C)CC [Example 23, E-5-(2-Bromovinyl)-3',5'-di-(t-butoxy-carbonyl-L-isoleucyl)-2'-deoxyuridine]",> 100,–,> 100,–,–,–,–
"C[C@H](NC(=O)OC(C)(C)C)C(=O)OC[C@H]1O[C@@H](n2cc(/C=C/Br)c(=O)[nH]c2=O)C[C@@H]1OC(=O)[C@H](C)NC(=O)OC(C)(C)C [Example 24, E-5-(2-Bromovinyl)-3',5'-di-(t-butoxy-carbonyl-L-alanyl)-2'-deoxyuridine]",0.62,0.92,> 100,–,–,–,–
"CC(C)(C)OC(=O)N[C@@H](CCC(N)=O)C(=O)OC[C@H]1O[C@@H](n2cc(/C=C/Br)c(=O)[nH]c2=O)C[C@@H]1OC(=O)[C@H](CCC(N)=O)NC(=O)OC(C)(C)C [Example 25, E-5-(2-Bromovinyl)-3',5'-di-(t-butoxycarbonyl-L-glutaminyl)-2'-deoxyuridine]",0.47,0.6,> 100,–,–,–,–
"CC(C)(C)OC(=O)NCCCC[C@H](NC(=O)OC(C)(C)C)C(=O)OC[C@H]1O[C@@H](n2cc(/C=C/Br)c(=O)[nH]c2=O)C[C@@H]1OC(=O)[C@H](CCCCNC(=O)OC(C)(C)C)NC(=O)OC(C)(C)C [Example 26, E-5-(2-Bromovinyl)-3',5'-bis-(Nβ,Nε-di-t-butoxycarbonyl-L-lysyl)-2'-deoxyuridine]",90,91,> 100,–,–,–,–
